From patent US20180028478A1, “ANTIVIRAL COMPOSITIONS DIRECTED AGAINST THE NUCLEOPROTEIN OF INFLUENZA VIRUSES” (priority 2011, published 2018)

What was measured:
NP WT = NP WT (Influenza A virus, UniProt P15682, A237T/A472T/G34D/M105R/P283S); type: binding, type-A Influenza virus (H1N1 A/WSN/1933)
NP R152A = NP R152A (Influenza A virus, UniProt P15682, R152A); type: binding, type-A Influenza virus
NP = NP (Influenza A virus, UniProt P15682, A237T/A472T/G34D/M105R/P283S)
NP R361A [1] = biological target: T1, NP R361A (Influenza A virus, UniProt P15682, R361A)
NP R361A [2] = biological target: T1, NP R361A; remark: listed apart in the source
[3] = biological target: nucleoprotein of SEQ ID NO: 2 (Influenza A virus, UniProt P15682, A237T/A472T/G34D/M105R/P283S)
NP R416A mutant = NP R416A mutant (Influenza A virus, UniProt P15682, R416A)
NP Y148A = NP Y148A (Influenza A virus, UniProt P15682, Y148A)

| SMILES | competition with the association of RNA to NP (signal of NP-RNA complex) (NP WT) | effect of R152A mutation on affinity (NP R152A) | direct attachment to surface-bound protein (NP) | direct attachment to surface-bound protein (NP R361A [1]) | competition with the RNA / attachment (NP R361A [2]) | beacon fluorescence in the presence of compound [3] | attachment to R416A mutant (NP R416A mutant) | competition with the RNA (NP Y148A) |
| --- | --- | --- | --- | --- | --- | --- | --- | --- |
| COc1ccc2cc(C(CC(=O)O)CC(=O)O)ccc2c1 [Naproxen A] | biphasic effect | reduces the affinity |  |  |  |  |  |  |
| COc1ccc2cc(-c3c(C(=O)O)cccc3C(=O)O)ccc2c1 [Naproxen c0] |  | reduces the affinity |  |  |  |  |  |  |
| COc1ccc2cc(C(C)C(=O)O)ccc2c1 (centres unmarked) [Naproxen] | signal decrease | no effect | direct attachment | but not to R361A | does not compete with the RNA any longer | fluorescence decreases | does not fix | does not compete with the RNA any longer |
